Measurements reported in US20150245597A1, “HETEROZYGOUS MOUSE WITH AN INACTIVATED BRD1 ALLELE AND USES IN PSYCHIATRY” (CAPNOVA A/S, priority 2012, published 2015).

What was measured:
Assay type in all cases: in vivo, mouse
R mice [1] = assay: Forced swim test (FST) with anti-depressants; details: for depressive equivalent behaviours during FST, difference between R and W mice: imipramine 1 mg/kg and 10 mg/kg, Fluoxetine 5 mg/kg, SC
Experimental: (§2) Depressive equivalent behaviours were assessed by forced swim test (FST) and tail suspension test (TST). Depressive equivalent behaviours (FST and TST) were assessed with anti-depressants (e.g. imipramine at two doses: 1 mg/kg and 10 mg/kg and Fluoxetine: 5 mg/kg, and with normal saline vehicle subcutaneous (SC) injections.

R mice [2] = assay: Tail suspension test (TST) with anti-depressants; details: for depressive equivalent behaviours during TST, difference between R and W mice: imipramine 1 mg/kg and 10 mg/kg, Fluoxetine 5 mg/kg, SC
Experimental: as §2

R mice [3] = assay: Y-maze spontaneous alternation test with PCP challenge; details: R mice vs W, PCP 1.3 mg/kg s.c., p<0.01
Experimental: (§1) Spatial learning and spatial working memory was tested in the Morris Water Maze (MWM). Learning was scored based on latency to escape while memory was scored based on frequency and time spent in each zone of the maze. Exploratory and working memory components was addressed by various types of y-maze alternation tasks including spontaneous alternation test with dark phase testing, continuous alternation, and delayed alternation. Both baseline and induced behaviour (PCP 1.3 mg/kg s.c. and 2.5 mg/kg s.c.) was assessed. In all Y-maze tasks, alternation was calculated as the percentage of right choices out of the total arm entries.

R mice [4] = assay: Pre-Pulse Inhibition (PPI) test during pharmacological challenge
Experimental: Gaiting and re-activity of the startle reflex was investigated by Acoustic Startle Response (ASR) and Pre-Pulse Inhibition (PPI) tests. In addition to baseline scores mice were also tested during pharmacological challenge; PCP (2.5 and 5 mg/kg s.c.) and amphetamine (2.5 and 5 mg/kg s.c.).

R mice [5] = assay: Y-maze continuous alternation test with PCP challenge; details: R mice vs W, PCP 1.3 mg/kg s.c., p<0.05
Experimental: as §1

R mice [6] = assay: Psychotropic drug-induced locomotor hyperactivity test
Experimental: Psychotropic drug-induced locomotor hyperactivity was established by injections with PCP (1.3, 2.5, and 5 mg/kg s.c.), amphetamine (1.3, 2.5, and 5 mg/kg s.c.) and cocaine (10, 20, and 30 mg/kg s.c.) as opposing saline vehicle s.c. and measured by recording both horizontal locomotor activity and rearing activity in an automated photo-cell equipped home-cage.

[7] = Imipramine 10 mg/kg compared with Fluoxetine

CN(C)CCCN1c2ccccc2CCc2ccccc21 [Imipramine, imipramine]
effect size on depressive equivalent behaviours (FST) (R mice [1]; [7]): larger effect sizes than Fluoxetine
depressive equivalent behaviours during FST, difference between R and W mice (R mice [1]): reversed
effect size on depressive equivalent behaviours (TST) (R mice [2]; [7]): larger effect sizes than Fluoxetine
depressive equivalent behaviours during TST, difference between R and W mice (R mice [2]): reversed

CNCCC(Oc1ccc(C(F)(F)F)cc1)c1ccccc1 (stereo not shown) [Fluoxetine]
depressive equivalent behaviours during FST, difference between R and W mice (R mice [1]): reversed
depressive equivalent behaviours during TST, difference between R and W mice (R mice [2]): reversed

c1ccc(C2(N3CCCCC3)CCCCC2)cc1 [PCP]
alternation in the spontaneous alternation test (R mice [3]): significant reduction
inhibition of the startle in the PPI test (R mice [4]; R males vs W mice, high prepulse intensities (15 db above background noise level), PCP 5 m/kg s.c.): reduced
Prepulse inhibition, response of R mice as compared to W littermates (R mice [4]; Table 1, males only with PCP): Decreased
alternation in the continuous alternation test (R mice [5]): significant reduction
drug-induced locomotor hyperactivity (horizontal and rearing activity) (R mice [6]; R males vs W mice, PCP 5 mg/kg s.c.): clear sensitivity

CC(N)Cc1ccccc1 (stereo not shown) [Amphetamine, amphetamine]
differences between R and W mice in PPI test when challenged (R mice [4]; amphetamine at any dose (2.5 and 5 mg/kg s.c.)): No differences
drug-induced locomotor activity response (horizontal and rearing activity) (R mice [6]; R males compared to W mice, amphetamine 5 mg/kg s.c.): obvious hypoactivity
